Experimental data as given in patent US20020137929A1, “1 - (3-heterocyclylphenyl) isothiourea, -isourea, -guanidine and -amidine herbicidal agents” (Intellectual Property Department, BASF Aktiengesellschaft, priority 1998, published 2002).

How the values were obtained:
ZEAMX (Corn, Field) = assay: Preemergence herbicidal evaluation; format: in vivo, Zea mays; details: preemergence, rated 4-5 weeks after treatment, 0-9 scale
Summary of the method: (§1)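 Greenhouse preemergence test: seed-soil mix sown on ~1 inch soil; aqueous acetone spray at equivalent of ~0.0156–0.500 kg/ha; greenhouse-held and watered; scored 0–9 visually at 4–5 weeks.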

CYPIR (Rice Flatsedge) [1] = assay: Preemergence weed control under flooded paddy conditions; format: in vivo, Cyperus iria; details: rated 3-4 weeks after treatment
Summary of the method: (§2)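 Silt loam, seeds in top 0.5 cm; flood held 1.5-3 cm; test cpd as acetone/water 50/50 into flood water, ~0.0313-0.500 kg/ha a.i.; greenhouse 3-4 wk; visual 0-9 score vs control.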

[2] = tested on: ECHORC (Watergrass (Calif.)); assay: as above; format: in vivo, Echinochloa oryzoides; details: rated 3-4 weeks after treatment
Summary of the method: as §2

[3] = tested on: TRZAWR (Wheat, Winter, cv Riband); assay: Preemergence herbicidal evaluation; format: in vivo, Triticum aestivum; details: preemergence, rated 4-5 weeks after treatment, 0-9 scale
Summary of the method: as §1

CYPSE (Flatsedge) = assay: Postemergence weed control under flooded paddy conditions; format: in vivo, Cyperus serotinus; details: postemergence weeds, rated 3 to 4 weeks after treatment
Summary of the method: (§3)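 Containers holding 3–5 cm weeds and rice at 1.5–2.5 leaves are flooded to 1.5–3 cm above soil. Compound in 50/50 v/v aqueous/acetone is then added directly to the water, about 0.0313–0.500 kg/ha. Plants are kept in the greenhouse and rated 0–9 visually at 3–4 weeks.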

[4] = tested on: IPOHE (Morningglory, Ivyleaf); assay: Preemergence herbicidal evaluation; format: in vivo, Ipomoea hederacea; details: preemergence, rated 4-5 weeks after treatment, 0-9 scale
Summary of the method: as §1

ECHCG (Barnyardgrass) = assay: Postemergence herbicidal evaluation; format: in vivo, Echinochloa crus-galli; details: postemergence
Summary of the method: (§4)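 ~2-wk seedlings; postemergence spray, 40 psi; vehicle 1:1 acetone:water + 0.5% Tween 20; rate ≈0.0156–0.500 kg/ha; greenhouse hold; scored 4–5 wk after treatment, 0–9 scale vs control; repeat tests averaged.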

ABUTH (Velvetleaf) = assay: Postemergence herbicidal evaluation; format: in vivo, Abutilon theophrasti; details: postemergence
Summary of the method: as §4

CYPIR (Rice Flatsedge) [5] = assay: Postemergence weed control under flooded paddy conditions; format: in vivo, Cyperus iria; details: postemergence weeds, rated 3 to 4 weeks after treatment
Summary of the method: as §3

[6] = tested on: SAGPY (Arrowhead (Pygmaea)); assay: as above; format: in vivo, Sagittaria pygmaea; details: postemergence weeds, rated 3 to 4 weeks after treatment
Summary of the method: as §3

MOOVA (Monochoria) = assay: Preemergence weed control under flooded paddy conditions; format: in vivo, Monochoria vaginalis; details: rated 3-4 weeks after treatment
Summary of the method: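 Greenhouse paddy assay. Acetone/water (50/50 v/v) solutions dosed into flood water, equivalent to about 0.0313 to 0.500 kg/ha active ingredient, over seeds planted 0.5 cm deep in silt loam. Score: 0-9 visual, based on stand, vigor, malformation, size and chlorosis, 3 to 4 weeks after treatment.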

ORYSAT (Rice, Tebonnet) = assay: Postemergence herbicidal evaluation; format: in vivo, Oryza sativa, (L.) Tebonnet; details: postemergence
Summary of the method: as §4

SETVI (Foxtail, Green) = assay: Postemergence herbicidal evaluation; format: in vivo, Setaria viridis; details: postemergence
Summary of the method: as §4

GALAP (Galium) = assay: Postemergence herbicidal evaluation; format: in vivo, Galium aparine; details: postemergence
Summary of the method: as §4

**Q.** What does the source list for CCS(=O)(=O)NC(=O)CC1SC(=Nc2cc(-n3c(=O)cc(C(F)(F)F)n(C)c3=O)c(F)cc2Cl)N(C)C1=O (centres unmarked) [Compound 105, 2-{{2-Chloro-5-[3,6-dihydro-3-methyl-2,6-dioxo-4-(trifluoromethyl)-1(2H)-pyrimidinyl]-4-fluorophenyl}imino}-N-(ethylsulfonyl)-3-methyl-4-oxo-5-thiazolidineacetamide]?
**A.** ZEAMX rating (ZEAMX (Corn, Field); 0.1250 kg/ha): 0.0; ZEAMX rating (ZEAMX (Corn, Field); 0.2500 kg/ha): 1.0; ZEAMX rating (ZEAMX (Corn, Field); 0.5000 kg/ha): 2.0; CYPIR herbicidal effect rating (CYPIR (Rice Flatsedge) [1]; 0.0313 kg/ha): 5.0; CYPIR herbicidal effect rating (CYPIR (Rice Flatsedge) [1]; 0.0625 kg/ha): 7.0; CYPIR herbicidal effect rating (CYPIR (Rice Flatsedge) [1]; 0.1250 kg/ha): 7.0; CYPIR herbicidal effect rating (CYPIR (Rice Flatsedge) [1]; 0.2500 kg/ha): 9.0; ECHORC herbicidal effect rating ([2]; 0.0313 kg/ha): 0.0; ECHORC herbicidal effect rating ([2]; 0.0625 kg/ha): 3.0; ECHORC herbicidal effect rating ([2]; 0.1250 kg/ha): 4.0; ECHORC herbicidal effect rating ([2]; 0.2500 kg/ha): 5.0; TRZAWR rating ([3]; 0.1250 kg/ha): 0.0; TRZAWR rating ([3]; 0.2500 kg/ha): 0.0; TRZAWR rating ([3]; 0.5000 kg/ha): 0.0; Herbicidal rating CYPSE (CYPSE (Flatsedge); Rate 0.0313 kg/ha): 2.0; Herbicidal rating CYPSE (CYPSE (Flatsedge); Rate 0.0625 kg/ha): 5.0; Herbicidal rating CYPSE (CYPSE (Flatsedge); Rate 0.1250 kg/ha): 7.0; Herbicidal rating CYPSE (CYPSE (Flatsedge); Rate 0.2500 kg/ha): 9.0; IPOHE rating ([4]; 0.1250 kg/ha): 0.0; IPOHE rating ([4]; 0.2500 kg/ha): 3.0; IPOHE rating ([4]; 0.5000 kg/ha): 4.0; herbicidal rating ECHCG (ECHCG (Barnyardgrass); rate 0.0156 kg/ha): 0.0; herbicidal rating ECHCG (ECHCG (Barnyardgrass); rate 0.0313 kg/ha): 0.0; herbicidal rating ECHCG (ECHCG (Barnyardgrass); rate 0.0625 kg/ha): 0.0; herbicidal rating ECHCG (ECHCG (Barnyardgrass); rate 0.1250 kg/ha): 3.0; herbicidal rating ABUTH (ABUTH (Velvetleaf); rate 0.0156 kg/ha): 4.0; herbicidal rating ABUTH (ABUTH (Velvetleaf); rate 0.0313 kg/ha): 4.0; herbicidal rating ABUTH (ABUTH (Velvetleaf); rate 0.0625 kg/ha): 4.0; herbicidal rating ABUTH (ABUTH (Velvetleaf); rate 0.1250 kg/ha): 9.0; Herbicidal rating CYPIR (CYPIR (Rice Flatsedge) [5]; Rate 0.0313 kg/ha): 5.0; Herbicidal rating CYPIR (CYPIR (Rice Flatsedge) [5]; Rate 0.0625 kg/ha): 7.0; Herbicidal rating CYPIR (CYPIR (Rice Flatsedge) [5]; Rate 0.1250 kg/ha): 7.0; Herbicidal rating CYPIR (CYPIR (Rice Flatsedge) [5]; Rate 0.2500 kg/ha): 9.0; Herbicidal rating SAGPY ([6]; Rate 0.0313 kg/ha): 3.0; Herbicidal rating SAGPY ([6]; Rate 0.0625 kg/ha): 5.0; Herbicidal rating SAGPY ([6]; Rate 0.1250 kg/ha): 5.0; Herbicidal rating SAGPY ([6]; Rate 0.2500 kg/ha): 7.0; MOOVA herbicidal effect rating (MOOVA (Monochoria); 0.0313 kg/ha): 6.0; MOOVA herbicidal effect rating (MOOVA (Monochoria); 0.0625 kg/ha): 7.0; MOOVA herbicidal effect rating (MOOVA (Monochoria); 0.1250 kg/ha): 7.0; MOOVA herbicidal effect rating (MOOVA (Monochoria); 0.2500 kg/ha): 9.0; herbicidal rating ORYSAT (ORYSAT (Rice, Tebonnet); rate 0.0156 kg/ha): 0.0; herbicidal rating ORYSAT (ORYSAT (Rice, Tebonnet); rate 0.0313 kg/ha): 0.0; herbicidal rating ORYSAT (ORYSAT (Rice, Tebonnet); rate 0.0625 kg/ha): 0.0; herbicidal rating ORYSAT (ORYSAT (Rice, Tebonnet); rate 0.1250 kg/ha): 2.0; herbicidal rating SETVI (SETVI (Foxtail, Green); rate 0.0156 kg/ha): 0.0; herbicidal rating SETVI (SETVI (Foxtail, Green); rate 0.0313 kg/ha): 0.0; herbicidal rating SETVI (SETVI (Foxtail, Green); rate 0.0625 kg/ha): 2.0; herbicidal rating SETVI (SETVI (Foxtail, Green); rate 0.1250 kg/ha): 5.0; herbicidal rating GALAP (GALAP (Galium); rate 0.0156 kg/ha): 0.0; herbicidal rating GALAP (GALAP (Galium); rate 0.0313 kg/ha): 0.0; herbicidal rating GALAP (GALAP (Galium); rate 0.0625 kg/ha): 1.0; herbicidal rating GALAP (GALAP (Galium); rate 0.1250 kg/ha): 2.0

**Q.** Which results are given for COC(=O)CC1SC(=Nc2cc(-n3c(=O)cc(C(F)(F)F)n(C)c3=O)c(F)cc2Cl)N(C)C1=O (centres unmarked) [Compound 88, Methyl 2-{{2-chloro-5-[3,6-dihydro-3-methyl-2,6-dioxo-4-(trifluoromethyl)-1(2H)-pyrimidinyl]-4-fluorophenyl}imino}-3-methyl-4-oxo-5-thiazolidineacetate]?
**A.** ZEAMX rating (ZEAMX (Corn, Field); 0.0156 kg/ha): 0.0; ZEAMX rating (ZEAMX (Corn, Field); 0.0313 kg/ha): 0.0; ZEAMX rating (ZEAMX (Corn, Field); 0.0625 kg/ha): 0.0; ZEAMX rating (ZEAMX (Corn, Field); 0.1250 kg/ha): 6.0; ZEAMX rating (ZEAMX (Corn, Field); 0.2500 kg/ha): 8.0; CYPIR herbicidal effect rating (CYPIR (Rice Flatsedge) [1]; 0.0313 kg/ha): 0.0; CYPIR herbicidal effect rating (CYPIR (Rice Flatsedge) [1]; 0.0625 kg/ha): 0.0; CYPIR herbicidal effect rating (CYPIR (Rice Flatsedge) [1]; 0.1250 kg/ha): 0.0; CYPIR herbicidal effect rating (CYPIR (Rice Flatsedge) [1]; 0.2500 kg/ha): 0.0; ECHORC herbicidal effect rating ([2]; 0.0313 kg/ha): 6.0; ECHORC herbicidal effect rating ([2]; 0.0625 kg/ha): 6.0; ECHORC herbicidal effect rating ([2]; 0.1250 kg/ha): 6.0; ECHORC herbicidal effect rating ([2]; 0.2500 kg/ha): 7.0; TRZAWR rating ([3]; 0.0156 kg/ha): 0.0; TRZAWR rating ([3]; 0.0313 kg/ha): 0.0; TRZAWR rating ([3]; 0.0625 kg/ha): 0.0; TRZAWR rating ([3]; 0.1250 kg/ha): 3.0; TRZAWR rating ([3]; 0.2500 kg/ha): 9.0; Herbicidal rating CYPSE (CYPSE (Flatsedge); Rate 0.0313 kg/ha): 3.0; Herbicidal rating CYPSE (CYPSE (Flatsedge); Rate 0.0625 kg/ha): 5.0; Herbicidal rating CYPSE (CYPSE (Flatsedge); Rate 0.1250 kg/ha): 7.0; Herbicidal rating CYPSE (CYPSE (Flatsedge); Rate 0.2500 kg/ha): 7.0; IPOHE rating ([4]; 0.0156 kg/ha): 0.0; IPOHE rating ([4]; 0.0313 kg/ha): 0.0; IPOHE rating ([4]; 0.0625 kg/ha): 0.0; IPOHE rating ([4]; 0.1250 kg/ha): 9.0; IPOHE rating ([4]; 0.2500 kg/ha): 9.0; ECHCG herbicidal rating (ECHCG (Barnyardgrass); rate 0.0158 kg/ha): 1.0; ECHCG herbicidal rating (ECHCG (Barnyardgrass); rate 0.0315 kg/ha): 7.0; ECHCG herbicidal rating (ECHCG (Barnyardgrass); rate 0.0630 kg/ha): 7.0; ABUTH herbicidal rating (ABUTH (Velvetleaf); rate 0.0158 kg/ha): 9.0; ABUTH herbicidal rating (ABUTH (Velvetleaf); rate 0.0315 kg/ha): 9.0; ABUTH herbicidal rating (ABUTH (Velvetleaf); rate 0.0630 kg/ha): 9.0; Herbicidal rating CYPIR (CYPIR (Rice Flatsedge) [5]; Rate 0.0313 kg/ha): 0.0; Herbicidal rating CYPIR (CYPIR (Rice Flatsedge) [5]; Rate 0.0625 kg/ha): 0.0; Herbicidal rating CYPIR (CYPIR (Rice Flatsedge) [5]; Rate 0.1250 kg/ha): 0.0; Herbicidal rating CYPIR (CYPIR (Rice Flatsedge) [5]; Rate 0.2500 kg/ha): 0.0; Herbicidal rating SAGPY ([6]; Rate 0.0313 kg/ha): 6.0; Herbicidal rating SAGPY ([6]; Rate 0.0625 kg/ha): 9.0; Herbicidal rating SAGPY ([6]; Rate 0.1250 kg/ha): 9.0; Herbicidal rating SAGPY ([6]; Rate 0.2500 kg/ha): 9.0; MOOVA herbicidal effect rating (MOOVA (Monochoria); 0.0313 kg/ha): 9.0; MOOVA herbicidal effect rating (MOOVA (Monochoria); 0.0625 kg/ha): 9.0; MOOVA herbicidal effect rating (MOOVA (Monochoria); 0.1250 kg/ha): 9.0; MOOVA herbicidal effect rating (MOOVA (Monochoria); 0.2500 kg/ha): 9.0; ORYSAT herbicidal rating (ORYSAT (Rice, Tebonnet); rate 0.0158 kg/ha): 2.0; ORYSAT herbicidal rating (ORYSAT (Rice, Tebonnet); rate 0.0315 kg/ha): 5.5; ORYSAT herbicidal rating (ORYSAT (Rice, Tebonnet); rate 0.0630 kg/ha): 6.0; SETVI herbicidal rating (SETVI (Foxtail, Green); rate 0.0158 kg/ha): 9.0; SETVI herbicidal rating (SETVI (Foxtail, Green); rate 0.0315 kg/ha): 9.0; SETVI herbicidal rating (SETVI (Foxtail, Green); rate 0.0630 kg/ha): 9.0; GALAP herbicidal rating (GALAP (Galium); rate 0.0158 kg/ha): 4.0; GALAP herbicidal rating (GALAP (Galium); rate 0.0315 kg/ha): 4.0; GALAP herbicidal rating (GALAP (Galium); rate 0.0630 kg/ha): 4.0
